Test results reported in article PMC7395068, “The evolution of strategies to minimise the risk of human drug-induced liver injury (DILI) in drug discovery and development” (Archives of Toxicology, 2020).
Where two headings read alike, the source gives them in different places.

How the values were obtained:
[1] = Plasma free fraction (fu) and unbound Cmax (Cmax,u); type: in vitro ADME, human; details: unbound plasma Cmax
Description: The prediction of DILI severity was evaluated further using the 3D combined HCI assays using plasma-free fraction. The majority of fu values were obtained from literature, when unavailable in-house prediction was utilised. Unbound plasma Cmax concentrations (Cmax,u) were derived by multiplying total plasma Cmax with the corresponding free fraction (fu) for each compound.

[2] = cited from earlier work
[3] = system: HepG2 cells; details: cited from earlier work
[4] = system: HepG2 cells; details: cited from earlier work; remark: listed apart in the source
[5] = system: THLE or HepG2 cells, isolated mitochondria, BSEP; details: cited from earlier work
[6] = read-out: Human plasma Cmax; total plasma Cmax.tot, median of 9 literature references; cited from earlier work
[7] = plasma free fraction; cited from earlier work
[8] = cited from earlier work; remark: listed apart in the source
[9] = system: THLE-Null and THLE-3A4 cells; details: In vitro Assay; ref Gustafsson 2014; cited from earlier work
[10] = system: HepG2 cells, primary human hepatocytes; details: In vitro Assay; ref Garside 2014; cited from earlier work
[11] = system: Upcyte human hepatocytes; details: In vitro Assay; ref Tolosa 2019; cited from earlier work
[12] = system: rBsep; details: In vitro Assay; ref Dawson 2012; cited from earlier work
[13] = system: hLiMTs; experiment: Combined HCI (HCS) and cellular ATP 3D assay in hLiMTs
[14] = system: HepaRG spheroids; experiment: Combined HCI (HCS) and cellular ATP 3D assay in HepaRG spheroids
[15] = Modeled in vitro assays (cytotoxicity, mitochondrial dysfunction, BSEP), ref Aleo et al. 2019
[16] = Microtissue model structural based (HCI), combined HCS and ATP, MEC < 25 × Cmax.tot cut-off

C[N+](C)(C)CC(=O)O [betaine, reference compound]
Human plasma Cmax,u [1]: 717.446 µM | DILI severity category (Chen et al. [2016]) ([2]; LTKB DILIrank category, ref Chen et al. 2016): No | DILI severity category (Chen 2016) ([2]; human DILI classification, LTKB DILIrank, ref Chen et al. 2016): No | DILI severity category ([2]; human DILI severity, ref Chen et al.): No | DILI +VE (5-8), DILI -VE (-4) ([2]; ref Chen 2016): -VE | DILI severity category ([2]; ref Chen 2016): vNo-DILI-Concern | Structural based (HCI) ([3]; In vitro Assay, ref O'Brien 2006): +VE | DILI in vitro assay prediction, O'Brien (2006) ([3]; Structural based (HCI), HepG2, ref O'Brien et al. 2006): +VE (lowest HCI endpoint IC50 (or in the absence of dose–response < 100 µM) < 30 × total human plasma exposure levels (Cmax.tot)) | Structural based (HCI) ([4]; In vitro Assay, ref Tolosa 2012): -VE | DILI in vitro assay prediction, Tolosa (2012) ([4]; Structural based (HCI), HepG2, ref Tolosa et al. 2012): -VE | Partition Hybrid HRM Score ([5]; In vitro Assay, ref Aleo 2019): -VE | Ro2 Hybrid HRM Score ([5]; In vitro Assay, ref Aleo 2019): -VE | Partition Hybrid HRM Score ≥4, Aleo (2019) [5, 15]: -VE | Partition Hybrid HRM Score ≥8, Aleo (2019) [5, 15]: -VE | Rule of Two hybrid HRM Score ≥3, Aleo (2019) [5, 15]: -VE | Rule of Two hybrid HRM Score ≥8, Aleo (2019) [5, 15]: -VE | Cmax [6]: 944 µM | fu [7]: 0.760 | Assigned DILI category ([8]; Chen et al. 2016 or literature alignment, ref Chen et al. 2016): 1 | In vivo DILI ([8]; ref Aleo 2019): -VE | In vivo DILI ([8]; ref Dawson 2012): -VE | In vivo DILI ([8]; ref Garside 2014): -VE | In vivo DILI ([8]; ref Gustafsson 2014): -VE | In vivo DILI ([8]; ref O'Brien 2006): -VE | In vivo DILI ([8]; ref Tolosa 2012): -VE | In vivo DILI ([8]; ref Tolosa 2019): -VE | THLE-Null [9]: -VE | THLE-Null/3A4 [9]: -VE | Cluster 1-6 +VE Assay [10]: -VE | Upcytes multi donor assay 14day data [11]: -VE | Inhibition of rBsep cutoff<1& cmax u>.2 [12]: -VE | Inhibition of rBsep cutoff<3 [12]: -VE | DILI prediction hLiMTs (HCS-MEC) [13, 16]: -VE | hLiMTs <25x Avg Cmax ATP ([13]; hLiMTs, ATP endpoint, cut-off <25x Avg Cmax): -ve | hLiMTs <100x Avg Cmaxu ATP ([13]; hLiMTs, ATP endpoint, cut-off <100x Avg Cmaxu): -ve | hLiMTs <25x Avg Cmax HCS ([13]; hLiMTs, HCS endpoints, cut-off <25x Avg Cmax): -ve | hLiMTs <100x Avg Cmaxu HCS ([13]; hLiMTs, HCS endpoints, cut-off <100x Avg Cmaxu): -ve | hLiMTs <25x Avg Cmax All ([13]; hLiMTs, all endpoints (ATP and HCS), cut-off <25x Avg Cmax): -ve | hLiMTs Cmax max All ([13]; hLiMTs, all endpoints, Cmax max used): -ve | hLiMTs Cmax min All ([13]; hLiMTs, all endpoints, Cmax min used): -ve | hLiMTs <10 uM All ([13]; hLiMTs, all endpoints, cut-off <10 uM): -ve | hLiMTs <100x Avg Cmaxu All ([13]; hLiMTs, all endpoints, cut-off <100x Avg Cmaxu): -ve | HepaRG <25x Avg Cmax ATP ([14]; HepaRG, ATP endpoint, cut-off <25x Avg Cmax): -ve | HepaRG <100x Avg Cmaxu ATP ([14]; HepaRG, ATP endpoint, cut-off <100x Avg Cmaxu): -ve | HepaRG <25x Avg Cmax HCS ([14]; HepaRG, HCS endpoints, cut-off <25x Avg Cmax): -ve | HepaRG <100x Avg Cmaxu HCS ([14]; HepaRG, HCS endpoints, cut-off <100x Avg Cmaxu): -ve | HepaRG <25x Avg Cmax All ([14]; HepaRG, all endpoints (ATP and HCS), cut-off <25x Avg Cmax): -ve | HepaRG Cmax max All ([14]; HepaRG, all endpoints, Cmax max used): -ve | HepaRG Cmax min All ([14]; HepaRG, all endpoints, Cmax min used): -ve | HepaRG <10 uM All ([14]; HepaRG, all endpoints, cut-off <10 uM): -ve | HepaRG <100x Avg Cmaxu All ([14]; HepaRG, all endpoints, cut-off <100x Avg Cmaxu): -ve | DILI prediction HepaRG spheroids (HCS-MEC) [14, 16]: -VE
